Laboratory results as given in article PMC8262356, “SLC26A6-selective inhibitor identified in a small-molecule screen blocks fluid absorption in small intestine” (JCI Insight, 2021).

Key:
PAT1 (murine slc26a6) = molecular target: T1, PAT1 (murine slc26a6) (Mus musculus, UniProt Q8CIW6); experiment: PAT1-mediated Cl-/I- exchange, YFP fluorescence quenching in FRT cells; type: cell-based; details: for effect on PAT1-mediated Cl-/I- exchange: 100 μM agonist
T1 construct: host or cells: Fischer rat thyroid (FRT) cells, lentiviral transduction (pLVX-IRES-mCherry-slc26a6), clonal line FRT-YFP-slc26a6
T1 sequence (Q8CIW6 24-758 limits assumed): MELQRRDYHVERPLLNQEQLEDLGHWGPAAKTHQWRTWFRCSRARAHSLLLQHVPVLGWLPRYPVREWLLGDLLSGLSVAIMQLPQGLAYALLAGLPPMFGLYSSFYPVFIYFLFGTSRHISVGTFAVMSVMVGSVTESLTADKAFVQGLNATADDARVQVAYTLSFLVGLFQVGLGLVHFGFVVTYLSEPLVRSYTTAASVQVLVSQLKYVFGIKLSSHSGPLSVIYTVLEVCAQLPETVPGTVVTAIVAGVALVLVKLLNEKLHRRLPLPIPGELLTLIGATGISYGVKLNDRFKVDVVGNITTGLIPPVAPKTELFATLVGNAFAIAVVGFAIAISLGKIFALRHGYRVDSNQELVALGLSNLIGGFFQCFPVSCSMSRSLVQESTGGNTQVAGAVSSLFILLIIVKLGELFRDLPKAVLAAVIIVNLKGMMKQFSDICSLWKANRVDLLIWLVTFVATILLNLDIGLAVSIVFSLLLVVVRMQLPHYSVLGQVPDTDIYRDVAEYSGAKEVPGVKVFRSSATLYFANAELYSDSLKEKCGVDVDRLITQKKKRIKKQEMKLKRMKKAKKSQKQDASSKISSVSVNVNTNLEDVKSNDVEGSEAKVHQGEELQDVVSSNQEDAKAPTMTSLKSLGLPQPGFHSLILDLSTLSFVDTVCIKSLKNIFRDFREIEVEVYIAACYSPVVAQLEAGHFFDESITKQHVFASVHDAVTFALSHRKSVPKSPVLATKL
Experimental: A small-molecule screen was developed to identify PAT1 inhibitors utilizing transfected FRT cells expressing PAT1 (murine slc26a6) together with a halide-sensing cytoplasmic YFP (Figure 1A). Adherent cells in a 96-well format were subjected to an inward gradient of I^– to drive exchange of I^– for Cl^– and consequent quenching of the YFP fluorescence signal.
A collection of approximately 50,000 diverse, drug-like synthetic small molecules (ChemDiv) was screened at a concentration of 25 μM using a Beckman Coulter BioMek FX liquid handling platform with FLUOstar OMEGA plate readers (BMG Labtech). FRT-YFP-slc26a6 cells were plated in 96-well black-walled, clear-bottom plates (Corning Life Sciences) at a density of 20,000 cells/well and cultured for 48 hours until confluent. Cells were washed twice in PBS and incubated for 10 minutes prior to assay in 100 μl PBS containing test compounds. For assay of slc26a6 function, baseline cellular fluorescence was measured for 2 seconds, after which 100 μl NaI-substituted PBS (140 mM NaCl replaced by 140 mM NaI) was added by syringe pump to drive Cl^–/I^– exchange. The initial rate of Cl^–/I^– exchange was determined by single exponential regression of the fluorescence time course. All assay plates contained wells with negative (1% DMSO) and positive (500 μM niflumic acid) controls. For structure-activity relationship studies, analogs of active compounds were purchased from ChemDiv.

[1] = tested on: mouse midjejunal closed loops; parameters: method as in PMID 30046015; details: 10 μM; cited from earlier work
[2] = tested on: mouse midjejunal closed loops; experiment: Closed midjejunal loop fluid absorption; type: in vivo; details: 10 μM luminal, 30 minutes
Experimental: For fluid absorption studies in small intestine, mice were given free access to 5% dextrose in water but not solid food for 24 hours before experiments. Closed midjejunal and ileal loops were prepared and isolated as described previously ([29]). Mice were anesthetized with isoflurane, and body temperature was maintained during surgery at 36°C–38°C using a heating pad. A small abdominal incision was made to expose small intestine for isolation of 3–4 closed small intestinal loops (jejunum or ileum, length 2–3 cm) with sutures. Loops were injected with 100 μL PBS (pH 7.4, 137 mM NaCl, 2.7 mM KCl, 8 mM Na2HPO4, 1.8 mM KH2PO4, 1 mM CaCl2, 0.5 mM MgCl2) containing 30 μM PAT1inh-B01, 10 μM DRAinh-A270, or 10 μM tenapanor (MedChemExpress) (or vehicle, 0.1% DMSO in PBS). In some experiments, 30 μM PAT1inh-B01 and 10 μM DRAinh-A270 were used together. In some experiments to rule out effects of sodium-dependent phosphate transport, the loop lumen contained HEPES-buffered saline (pH 7.4, 137 mM NaCl, 4.5 mM KCl, 10 mM HEPES, 1 mM CaCl2, 0.5 mM MgCl2). […] Intestinal loops were removed at 0 and 30 minutes (in separate mice), and loop length and weight were measured to quantify fluid absorption. […] In some experiments, loop fluid was emptied with a syringe, and pH was measured immediately using AB15 pH meter after brief centrifugation at 2000 g for 5 minutes at 4°C.

mouse ileal closed loops = experiment: Closed ileal loop fluid absorption; type: in vivo; details: 10 μM luminal, 30 minutes, PBS
Experimental: (§1) For fluid absorption studies in small intestine, mice were given free access to 5% dextrose in water but not solid food for 24 hours before experiments. Closed midjejunal and ileal loops were prepared and isolated as described previously ([29]). Mice were anesthetized with isoflurane, and body temperature was maintained during surgery at 36°C–38°C using a heating pad. A small abdominal incision was made to expose small intestine for isolation of 3–4 closed small intestinal loops (jejunum or ileum, length 2–3 cm) with sutures. Loops were injected with 100 μL PBS (pH 7.4, 137 mM NaCl, 2.7 mM KCl, 8 mM Na2HPO4, 1.8 mM KH2PO4, 1 mM CaCl2, 0.5 mM MgCl2) containing 30 μM PAT1inh-B01, 10 μM DRAinh-A270, or 10 μM tenapanor (MedChemExpress) (or vehicle, 0.1% DMSO in PBS). In some experiments, 30 μM PAT1inh-B01 and 10 μM DRAinh-A270 were used together. In some experiments to rule out effects of sodium-dependent phosphate transport, the loop lumen contained HEPES-buffered saline (pH 7.4, 137 mM NaCl, 4.5 mM KCl, 10 mM HEPES, 1 mM CaCl2, 0.5 mM MgCl2). The abdominal incision was closed with sutures, and mice were allowed to recover from anesthesia. Intestinal loops were removed at 0 and 30 minutes (in separate mice), and loop length and weight were measured to quantify fluid absorption. In parallel experiments, CF mice were used and loop studies were done as described above. In some experiments, loop fluid was emptied with a syringe, and pH was measured immediately using AB15 pH meter after brief centrifugation at 2000 g for 5 minutes at 4°C.

[3] = tested on: mouse distal colonic closed loops; experiment: Closed distal colonic loop fluid absorption; type: in vivo; details: 10 μM luminal
Experimental: For fluid absorption studies in colon, mice were given free access to 5% dextrose in water but not solid food for 48 hours. Mice were treated with 500 μL mineral oil twice a day rectally (final dose 16 h before surgery) during this period to evacuate the colon. Closed distal colonic loops (length 1.5–2 cm, 1 loop per mouse) were isolated as described previously ([7]). Loops were injected with 100 μL PBS with 30 μM PAT1inh-B01, 10 μM DRAinh-A270, or 10 μM tenapanor (or vehicle). In some experiments, 30 μM PAT1inh-B01 and 10 μM DRAinh-A270 were used together. Colonic loops were removed at 0 and 60 minutes (in separate mice), and loop length and weight were measured to quantify fluid absorption.

[4] = tested on: ileal closed loops in cystic fibrosis (CF) mice (homozygous F508del); experiment: Closed ileal loop fluid absorption in CF mice; type: in vivo, mouse; details: 10 μM luminal
Experimental: as §1

[5] = tested on: loperamide-induced constipation in mice; experiment: Loperamide model of constipation; type: in vivo, mouse; details: 10 mg/kg, oral, stool collected over 3 hours
Experimental: Wild-type CD1 mice were administered loperamide (0.3 mg/kg, intraperitoneally) in PBS containing 5% ethanol (0.1 mg/mL final concentration) to induce constipation ([9], [30]). PAT1inh-B01 and DRAinh-A270, individually or together (10 mg/kg each, in saline containing 5% DMSO and 10% Kolliphor HS 15), or vehicle control were administered by oral gavage 1 hour before loperamide. After loperamide injection mice were placed individually in metabolic cages with free access to food and water. Stool samples were collected for 3 hours, and total stool weight and number of fecal pellets were quantified. To measure stool water content, stool samples were dried at 80°C for 24 hours and water content was calculated as follows: (wet weight – dry weight)/wet weight ([9], [30]).

DRA = DRA inhibition potency comparison; details: vs DRAinh-A250

Structure (SMILES)	effect on PAT1-mediated Cl-/I- exchange (PAT1 (murine slc26a6))	inhibition of fluid absorption (decrease in loop weight-to-length ratio) [2]	effect on ileal fluid absorption (loop weight-to-length ratio) (mouse ileal closed loops)	effect on colonic fluid absorption (loop weight-to-length ratio) [3]	effect on fluid absorption from ilea of CF mice [4]	also measured
Nc1nc2c(nc(Br)n2[C@@H]2O[C@@H]3COP(=O)(O)O[C@H]3[C@H]2O)c(=O)[nH]1 [8-Br-cGMP, reference compound]	did not significantly affect	–	–	–	–	–
Nc1ncnc2c1ncn2[C@@H]1O[C@H](COP(=O)(O)OP(=O)(O)OP(=O)(O)O)[C@@H](O)[C@H]1O [ATP, reference compound]	did not significantly affect	–	–	–	–	–
Cc1c(CC(=O)O)c(=O)oc2c(C)c(OCc3cccc(Br)c3)ccc12 [DRAinh-A250]	–	–	–	–	–	effect on fluid absorption in closed midjejunal loops [1]: did not significantly affect
Cc1c(CC(=O)O)c(=O)oc2c(C)c(OCc3cccc(I)c3)ccc12 [DRAinh-A270]	–	approximately 50%	did not inhibit	completely prevented	no effect	effect on number of pellets [5]: increased; effect on stool water content [5]: normalized; effect on stool weight [5]: increased; potency as DRA inhibitor relative to DRAinh-A250 (DRA): 5 fold
O=C(O)c1cccnc1Nc1cccc(C(F)(F)F)c1 [niflumic acid, reference compound]	–	–	–	–	–	IC50 (PAT1 (murine slc26a6); FRT cells expressing PAT1 and YFP, read-out: IC50, inhibition of PAT1-mediated Cl-/I- exchange): 200 µM
CN1Cc2c(Cl)cc(Cl)cc2[C@H](c2cccc(S(=O)(=O)NCCOCCOCCNC(=O)NCCCCNC(=O)NCCOCCOCCNS(=O)(=O)c3cccc([C@@H]4CN(C)Cc5c(Cl)cc(Cl)cc54)c3)c2)C1 [tenapanor]	–	comparable	comparable	did not inhibit	completely blocked	–
